This assay has as its target HPK full length, T165E S171E (Homo sapiens (Human), UniProt Q92918, S171E/T165E). Kind of assay: HPK1-FL HTRF enzymatic assay ("HTRF"). The class given is biochemical. Conditions: ATP 1 mM. The procedure: Assay Principle: HPK-FL enzyme phosphorylates Biotin-SLP-76 substrate in the presence of ATP at […] and varying concentrations of test compound. Product is detected by FRET using Eu-anti-pSLP76 Ab and SA-XL665. Also see www.cisbio.com/HTRF for additional HTRF technology information.
Instrumentation: Echo555 compound dispenser; Agilent Bravo; Perkin Elmer Envision.
To a 384 well Proxiplate with 80 nL compound or DMSO spotted on was added 4 μl/well kinase mix. The mixture was preincubated for 30 minutes and then 4 μl/well substrate mix was added. The solution was incubated for 60 min and then 4 μl/well detection mix was added. The solution was incubated for another 60 min.
Exemplary compounds were tested in the HTRF binding assays.

In patent publication US11612606B2, “8-aminoisoquinoline compounds and uses thereof” (priority 2018, dated 2023) one finds Ki data, which are given here for 33 compounds.

Structures are written as SMILES. Where a name gives a salt, the structure may show the parent alone. Read-outs that look alike come from different tables or passages of the source.

Sequence of HPK full length, T165E S171E (Q92918 whole entry T165E/S171E, looked up): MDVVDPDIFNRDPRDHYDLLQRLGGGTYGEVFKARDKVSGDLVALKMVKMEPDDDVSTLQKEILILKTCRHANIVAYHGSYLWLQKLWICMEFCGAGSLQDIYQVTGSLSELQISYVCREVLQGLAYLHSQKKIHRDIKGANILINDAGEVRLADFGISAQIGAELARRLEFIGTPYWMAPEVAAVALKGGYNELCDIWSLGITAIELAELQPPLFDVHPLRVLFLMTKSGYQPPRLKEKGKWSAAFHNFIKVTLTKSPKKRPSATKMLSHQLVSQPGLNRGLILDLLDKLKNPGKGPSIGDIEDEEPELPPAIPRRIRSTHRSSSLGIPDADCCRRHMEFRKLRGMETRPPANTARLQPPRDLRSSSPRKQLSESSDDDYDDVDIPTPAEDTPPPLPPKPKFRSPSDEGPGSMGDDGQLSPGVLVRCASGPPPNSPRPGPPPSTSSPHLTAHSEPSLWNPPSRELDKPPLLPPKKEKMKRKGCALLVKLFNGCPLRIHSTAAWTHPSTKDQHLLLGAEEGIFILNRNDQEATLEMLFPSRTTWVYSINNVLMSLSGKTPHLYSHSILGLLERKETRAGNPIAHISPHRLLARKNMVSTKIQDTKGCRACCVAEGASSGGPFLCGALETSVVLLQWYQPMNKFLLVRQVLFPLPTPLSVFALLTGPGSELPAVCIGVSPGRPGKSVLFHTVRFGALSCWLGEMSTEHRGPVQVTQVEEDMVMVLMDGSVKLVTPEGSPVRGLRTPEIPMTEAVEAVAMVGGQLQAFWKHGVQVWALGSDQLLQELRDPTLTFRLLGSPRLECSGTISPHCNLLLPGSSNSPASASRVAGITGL

With `Cc1c(-c2cc3cc(NC(=O)OC4CN(C(=O)[C@@H]5C[C@H]5F)C4)ncc3c(N)c2F)cnc2c1NCCO2` (single isomer, unassigned) [Compound 545b], the inhibitory constant (Ki) (read-out: HPK1 Ki) is 0.018 nM.

As to `Cc1c(-c2cc3cc(NC(=O)OC4C5COCC4CN(C(C)C)C5)ncc3c(N)c2F)cnc2c1NCCO2` (single isomer, unassigned) [Compound 506a], where the note is “read-out: HPK1 Ki”, the inhibitory constant (Ki) was under 0.013 nM.

For the compound `Cc1c(-c2cc3cc(NC(=O)O[C@H]4C[C@](C)(C#N)C4)ncc3c(N)c2F)cnc2c1NCCO2` [Compound 537b, (1r,3r)-3-Cyano-3-methylcyclobutyl (8-amino-7-fluoro-6-(8-methyl-2,3-dihydro-1H-pyrido[2,3-b][1,4]oxazin-7-yl)isoquinolin-3-yl)carbamate], the Ki (read-out: HPK1 Ki) is under 0.013 nM.

Take `Cc1c(-c2cc3cc(NC(=O)OC4CC5(CCNCC5)C4)ncc3c(N)c2F)cnc2c1NCCO2` [Compound 580, 7-Azaspiro[3.5]nonan-2-yl (8-amino-7-fluoro-6-(8-methyl-2,3-dihydro-1H-pyrido[2,3-b][1,4]oxazin-7-yl)isoquinolin-3-yl)carbamate]: the inhibition constant (Ki) (read-out: HPK1 Ki) was under 0.013 nM. For the compound `Cc1c(-c2cc3cc(NC(=O)OC4CCN(C)CC4F)ncc3c(N)c2F)cnc2c1NCCO2` (single isomer, unassigned) [Compound 433], the Ki (read-out: HPK1 Ki) was under 0.013 nM. Turning to `Cc1c(-c2cc(N)c3cnc(NC(=O)O[C@H]4C[C@@H](C#N)C4)cc3c2)cnc2c1NCCO2` [Compound 557a, (1s,3s)-3-Cyanocyclobutyl (8-amino-6-(8-methyl-2,3-dihydro-1H-pyrido[2,3-b][1,4]oxazin-7-yl)isoquinolin-3-yl)carbamate hydrochloride], the inhibition constant Ki (read-out: HPK1 Ki) is under 0.013 nM. As for `Cc1c(-c2cc(N)c3cnc(NC(=O)O[C@H]4COC[C@@H]4C)cc3c2)cnc2c1NCCO2` (single isomer, unassigned) [Compound 556a, hydrochloride], the inhibition constant Ki (read-out: HPK1 Ki) stood at 0.032 nM. On to `Cc1c(-c2cc3cc(NC(=O)N4CCC4)ncc3c(N)c2F)cnc2c1NCCO2` [Compound 756, N-(8-Amino-7-fluoro-6-(8-methyl-2,3-dihydro-1H-pyrido[2,3-b][1,4]oxazin-7-yl)isoquinolin-3-yl)azetidine-1-carboxamide], for which, for the setting “read-out: HPK1 Ki”, the inhibition constant (Ki) is 0.02 nM. Take `Cc1c(-c2cc3cc(NC(=O)O[C@H]4CCN(CC(F)F)C[C@H]4F)ncc3c(N)c2F)cnc2c1NCCO2` (single isomer, unassigned) [Compound 566b]: the Ki (read-out: HPK1 Ki) amounted to 0.149 nM. For the compound `Cc1c(-c2cc3cc(NC(=O)O[C@@H]4CO[C@@]5(CCN(C)C5)C4)ncc3c(N)c2F)cnc2c1NCCO2` (single isomer, unassigned) [Compound 467a], under “read-out: HPK1 Ki”, the Ki turned out to be 0.031 nM.

In the case of `Cc1c(-c2cc3cc(NC(=O)O[C@H]4C[C@@H](CC#N)C4)ncc3c(N)c2F)cnc2c1NCCO2` [Compound 536a, (1r,3s)-3-(Cyanomethyl)cyclobutyl (8-amino-7-fluoro-6-(8-methyl-2,3-dihydro-1H-pyrido[2,3-b][1,4]oxazin-7-yl)isoquinolin-3-yl)carbamate], where the note is “read-out: HPK1 Ki”, the Ki was under 0.013 nM. Take `Cc1c(-c2cc3cc(NC(=O)OC4CN(CC(F)F)C4)ncc3c(N)c2F)cnc2c1NCCO2` [Compound 434, 1-(2,2-Difluoroethyl)azetidin-3-yl (8-amino-7-fluoro-6-(8-methyl-2,3-dihydro-1H-pyrido[2,3-b][1,4]oxazin-7-yl)isoquinolin-3-yl)carbamate]: the Ki (read-out: HPK1 Ki) is under 0.013 nM. Take `Cc1c(-c2cc3cc(NC(=O)N[C@H]4CCOC[C@H]4F)ncc3c(N)c2F)cnc2c1NCCO2` (single isomer, unassigned) [Compound 747a]: under “HPK1 Ki”, the inhibitory constant (Ki) was under 0.013 nM. Take `Cc1c(-c2cc3cc(NC(=O)N[C@H]4CCN(C)C[C@H]4F)ncc3c(N)c2F)cnc2c1NCCO2` (single isomer, unassigned) [Compound 703c, (±)-1-(8-Amino-7-fluoro-6-(8-methyl-2,3-dihydro-1H-pyrido[2,3-b][1,4]oxazin-7-yl)isoquinolin-3-yl)-3-((cis)-3-fluoro-1-methylpiperidin-4-yl)urea]: the Ki (read-out: HPK1 Ki) amounted to 0.03 nM. For the compound `Cc1c(-c2cc3cc(NC(=O)O[C@H]4CC[C@@H](O)C4)ncc3c(N)c2F)cnc2c1NCCO2` (single isomer, unassigned) [Compound 582a], the inhibitory constant (Ki) (read-out: HPK1 Ki) came out at 0.02 nM.

With `Cc1c(-c2cc3cc(NC(=O)O[C@H]4C[C@H]([C@@H](C)O)C4)ncc3c(N)c2F)cnc2c1NCCO2` (single isomer, unassigned) [Compound 573c], under “read-out: HPK1 Ki”, the Ki was found to be 0.017 nM. On the same count and under the same terms, the result for `Cc1c(-c2cc3cc(NC(=O)O[C@@H]4COC[C@H]4C#N)ncc3c(N)c2F)cnc2c1NCCO2` (single isomer, unassigned) [Compound 538a] reads 0.058 nM. `Cc1c(-c2cc3cc(NC(=O)O[C@H]4C[C@@H](C(C)(C)O)C4)ncc3c(N)c2F)cnc2c1NCCO2` [Compound 574b, (1s,3s)-3-(2-hydroxypropan-2-yl)cyclobutyl (8-amino-7-fluoro-6-(8-methyl-2,3-dihydro-1H-pyrido[2,3-b][1,4]oxazin-7-yl)isoquinolin-3-yl)carbamate]: the inhibition constant Ki (read-out: HPK1 Ki) is under 0.013 nM. Turning to `Cc1c(-c2cc3cc(NC(=O)N4CCCC4)ncc3c(N)c2F)cnc2c1NCCO2` [Compound 745, N-(8-Amino-7-fluoro-6-(8-methyl-2,3-dihydro-1H-pyrido[2,3-b][1,4]oxazin-7-yl)isoquinolin-3-yl)pyrrolidine-1-carboxamide], the Ki (read-out: HPK1 Ki) came out at 0.29 nM. For `Cc1c(-c2cc3cc(NC(=O)O[C@H]4C[C@@H](S(C)(=O)=O)C4)ncc3c(N)c2F)cnc2c1NCCO2` [Compound 572a, (1s,3s)-3-(Methylsulfonyl)cyclobutyl (8-amino-7-fluoro-6-(8-methyl-2,3-dihydro-1H-pyrido[2,3-b][1,4]oxazin-7-yl)isoquinolin-3-yl)carbamate], the inhibition constant Ki (read-out: HPK1 Ki) was under 0.013 nM. Still for that read-out and setting: under `Cc1c(-c2cc3cc(NC(=O)O[C@@H]4CCC5(CCN(C6COC6)CC5)C4)ncc3c(N)c2F)cnc2c1NCCO2` (single isomer, unassigned) [Compound 511a] stands under 0.013 nM. On the same count and under the same terms, the result for `Cc1c(-c2cc3cc(NC(=O)O[C@H]4CCN(C5COC5)C[C@H]4F)ncc3c(N)c2F)cnc2c1NCCO2` [Compound 445d, (3R,4S)-3-Fluoro-1-(oxetan-3-yl)piperidin-4-yl (8-amino-7-fluoro-6-(8-methyl-2,3-dihydro-1H-pyrido[2,3-b][1,4]oxazin-7-yl)isoquinolin-3-yl)carbamate] reads under 0.013 nM; that for `Cc1c(-c2cc3cc(NC(=O)O[C@H]4C[C@@H](C#N)C4)ncc3c(N)c2F)cnc2c1NCCO2` [Compound 484a, (1s,3s)-3-Cyanocyclobutyl (8-amino-7-fluoro-6-(8-methyl-2,3-dihydro-1H-pyrido[2,3-b][1,4]oxazin-7-yl)isoquinolin-3-yl)carbamate], under 0.013 nM; that for `Cc1c(-c2cc3cc(NC(=O)O[C@@H]4CCOC4)ncc3c(N)c2F)cnc2c1C(C#N)CCO2` (stereo partly drawn) [Compound 562a, (R)-Tetrahydrofuran-3-yl (8-amino-6-(4-cyano-5-methyl-3,4-dihydro-2H-pyrano[2,3-b]pyridin-6-yl)-7-fluoroisoquinolin-3-yl)carbamate], 0.068 nM.

Take `Cc1c(-c2cc3cc(NC(=O)OC4CCOC4)ncc3c(N)c2F)cnc2c1NCCO2` (racemic) [Compound 403, (±)-Tetrahydrofuran-3-yl (8-amino-7-fluoro-6-(8-methyl-2,3-dihydro-1H-pyrido[2,3-b][1,4]oxazin-7-yl)isoquinolin-3-yl)carbamate]: the inhibition constant (Ki) (read-out: HPK1 Ki) was determined as 0.023 nM. `Cc1c(-c2cc3cc(NC(=O)OC4CN(CC(F)(F)F)C4)ncc3c(N)c2F)cnc2c1NCCO2` [Compound 420, 1-(2,2,2-Trifluoroethyl)azetidin-3-yl (8-amino-7-fluoro-6-(8-methyl-2,3-dihydro-1H-pyrido[2,3-b][1,4]oxazin-7-yl)isoquinolin-3-yl)carbamate]: the Ki (read-out: HPK1 Ki) was under 0.013 nM.

`Cc1c(-c2cc3cc(NC(=O)O[C@H]4CCC(=O)N(C)C4)ncc3c(N)c2F)cnc2c1NCCO2` [Compound 409a, (S)-1-Methyl-6-oxopiperidin-3-yl (8-amino-7-fluoro-6-(8-methyl-2,3-dihydro-1H-pyrido[2,3-b][1,4]oxazin-7-yl)isoquinolin-3-yl)carbamate]: the inhibition constant Ki (read-out: HPK1 Ki) was 0.053 nM. As for `Cc1c(-c2cc3cc(NC(=O)O[C@H]4C[C@H](N(C)C)C4)ncc3c(N)c2F)cnc2c1NCCO2` [Compound 447a, (1r,3r)-3-(Dimethylamino)cyclobutyl (8-amino-7-fluoro-6-(8-methyl-2,3-dihydro-1H-pyrido[2,3-b][1,4]oxazin-7-yl)isoquinolin-3-yl)carbamate hydrochloride], the inhibitory constant (Ki) (read-out: HPK1 Ki) is under 0.013 nM.

On to `Cc1c(-c2cc3cc(NC(=O)N4CC(C)(O)C4)ncc3c(N)c2F)cnc2c1NCCO2` [Compound 754], for which the Ki (read-out: HPK1 Ki) was determined as 0.205 nM. As to `Cc1c(-c2cc3cc(NC(=O)N[C@H]4C[C@]5(CCOC5)C4)ncc3c(N)c2F)cnc2c1NCCC2` [Compound 740a, 1-(8-Amino-7-fluoro-6-(4-methyl-5,6,7,8-tetrahydro-1,5-naphthyridin-3-yl)isoquinolin-3-yl)-3-((2s,4s)-6-oxaspiro[3.4]octan-2-yl)urea], the inhibition constant (Ki) (read-out: HPK1 Ki) is under 0.013 nM. As to `Cc1c(-c2cc3cc(NC(=O)O[C@@H]4CCNC4)ncc3c(N)c2F)cnc2c1NCCO2` (single isomer, unassigned) [Compound 405a], the inhibitory constant (Ki) (read-out: HPK1 Ki) is 0.138 nM.

`Cc1c(-c2cc3cc(NC(=O)O[C@@H]4CCOC4)ncc3c(N)c2F)cnc2c1NC[C@@H](F)O2` (single isomer, unassigned) [Compound 518a]: the Ki (read-out: HPK1 Ki) came to 0.069 nM. Consider `CO[C@H]1CC[C@@H](NC(=O)Nc2cc3cc(-c4cnc5c(c4C)NCCO5)c(F)c(N)c3cn2)C1` [Compound 730c, 1-(8-amino-7-fluoro-6-(8-methyl-2,3-dihydro-1H-pyrido[2,3-b][1,4]oxazin-7-yl)isoquinolin-3-yl)-3-((1R,3S)-3-methoxycyclopentyl)urea], for which the inhibition constant Ki (HPK1 Ki) was under 0.013 nM.
